pIC50: −log10 of the molar value.

aldosterone synthase (CYP11B2), sequence (A0A2K5UPL9 1-503): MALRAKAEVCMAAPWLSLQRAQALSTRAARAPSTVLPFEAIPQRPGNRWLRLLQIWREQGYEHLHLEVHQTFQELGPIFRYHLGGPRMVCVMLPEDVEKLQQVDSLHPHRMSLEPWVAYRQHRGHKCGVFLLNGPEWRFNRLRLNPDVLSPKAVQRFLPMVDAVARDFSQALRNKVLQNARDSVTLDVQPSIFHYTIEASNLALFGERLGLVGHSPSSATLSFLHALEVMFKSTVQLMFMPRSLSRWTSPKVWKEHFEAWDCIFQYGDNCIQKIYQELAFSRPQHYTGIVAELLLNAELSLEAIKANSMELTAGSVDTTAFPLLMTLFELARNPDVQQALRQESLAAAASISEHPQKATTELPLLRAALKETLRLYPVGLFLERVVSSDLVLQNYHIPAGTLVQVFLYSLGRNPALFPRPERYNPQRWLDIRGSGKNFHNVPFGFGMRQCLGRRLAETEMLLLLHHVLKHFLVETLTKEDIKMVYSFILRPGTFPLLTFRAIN

The test concerns the target aldosterone synthase (CYP11B2) (Macaca fascicularis, UniProt A0A2K5UPL9). The test is described as follows: aldosterone synthase inhibition assay. As to conditions: cynomolgus adrenal gland mitochondria, 2 μM corticosterone, aldosterone quantified by mass spectrometry. Format: biochemical, cynomolgus monkey. The gist of the method: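 Cynomolgus adrenal mitochondria ([…]) used as CYP11B2 source with 2 μM corticosterone in 100 mM potassium phosphate pH 7.4, 1% DMSO; reaction started with 1 mM NADPH, run 60-90 min at 37° C. Aldosterone measured by mass spectrometry; IC50 from 4-parameter logistic fit, no-NADPH blank as 0%.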
For `Cn1ncc2c(C#N)cc(-c3cncc4c3COCC4(C)O)cc21` (single isomer, unassigned) [Compound 174, 6-(4-Hydroxy-4-methyl-3,4-dihydro-1H-pyrano[4,3-c]pyridin-8-yl)-1-methyl-1H-indazole-4-carbonitrile], the pIC50 was 5.36.

As for `Cn1ncc2c(F)cc(-c3cncc4c3COCC4(C)O)cc21` (single isomer, unassigned) [Compound 175, 8-(4-Fluoro-1-methyl-1H-indazol-6-yl)-4-methyl-3,4-dihydro-1H-pyrano[4,3-c]pyridin-4-ol], the pIC50 was 7.67.

Take `Cn1ncc2c(F)cc(-c3cncc4c3COCC4(C)O)cc21` (single isomer, unassigned) [Compound 176, 8-(4-Fluoro-1-methyl-1H-indazol-6-yl)-4-methyl-3,4-dihydro-1H-pyrano[4,3-c]pyridin-4-ol]: the pIC50 was 7.87.

`Cn1nc(C#N)c2ccc(-c3cncc4c3COCC4(C)O)cc21` (single isomer, unassigned) [Compound 177, 6-(4-Hydroxy-4-methyl-3,4-dihydro-1H-pyrano[4,3-c]pyridin-8-yl)-1-methyl-1H-indazole-3-carbonitrile] showed a negative-log IC50 (pIC50) of 7.37.

For the molecule `Cn1nc(C#N)c2ccc(-c3cncc4c3COCC4(C)O)cc21` (single isomer, unassigned) [Compound 178, 6-(4-Hydroxy-4-methyl-3,4-dihydro-1H-pyrano[4,3-c]pyridin-8-yl)-1-methyl-1H-indazole-3-carbonitrile], the pIC50 is 7.82.

In turn, `Cn1ncc2ccc(-c3cncc4c3C(C)(O)COC4)cc21` (single isomer, unassigned) [Compound 179, 4-Methyl-5-(1-methyl-1H-indazol-6-yl)-3,4-dihydro-1H-pyrano[3,4-c]pyridin-4-ol] showed a negative-log IC50 (pIC50) of 7.41.

On to `Cn1ncc2ccc(-c3cncc4c3C(C)(O)COC4)cc21` (single isomer, unassigned) [Compound 180, 4-Methyl-5-(1-methyl-1H-indazol-6-yl)-3,4-dihydro-1H-pyrano[3,4-c]pyridin-4-ol], for which the negative-log IC50 (pIC50) is 6.55.

Molecule `O=C1CCc2nc(-c3cncc4c3COCC4O)ccc21` (single isomer, unassigned) [Compound 181, 2-(4-Hydroxy-3,4-dihydro-1H-pyrano[4,3-c]pyridin-8-yl)-6,7-dihydro-[1]pyrindin-5-one] had a pIC50 of 6.82.

On to `CC1(C)COc2ccc(-c3cncc4c3COCC4O)cc21` (single isomer, unassigned) [Compound 182, 8-(3,3-Dimethyl-2,3-dihydro-benzofuran-5-yl)-3,4-dihydro-1H-pyrano[4,3-c]pyridin-4-ol], for which the pIC50 was 6.30.

`O=C1CCc2cc(-c3cncc4c3COCC4O)ccc21` (single isomer, unassigned) [Compound 183, 5-(4-Hydroxy-3,4-dihydro-1H-pyrano[4,3-c]pyridin-8-yl)-indan-1-one]: the negative logarithm of the IC50 (pIC50) was 7.28.

Turning to `CN(C)C1COCc2c(-c3ccc4cnn(C)c4c3)cncc21` (single isomer, unassigned) [Compound 185, Dimethyl-[8-(1-methyl-1H-indazol-6-yl)-3,4-dihydro-1H-pyrano[4,3-c]pyridin-4-yl]-amine], the negative logarithm of the IC50 (pIC50) was 7.74.

In the case of `N#CC1CC=C(c2cncc3c2COCC3O)CC1` (single isomer, unassigned) [Compound 186, 4-(4-Hydroxy-3,4-dihydro-1H-pyrano[4,3-c]pyridin-8-yl)-cyclohex-3-enecarbonitrile], the negative-log IC50 (pIC50) is 7.17.

As for `Cn1ncc2c1C=C(c1cncc3c1COCC3O)CC2` (single isomer, unassigned) [Compound 187, 8-(1-Methyl-4,5-dihydro-1H-indazol-6-yl)-3,4-dihydro-1H-pyrano[4,3-c]pyridin-4-ol], the pIC50 is 7.89.

`Cn1nnc2ccc(-c3cncc4c3COCC4O)cc21` (single isomer, unassigned) [Compound 188, 8-(3-Methyl-3H-benzotriazol-5-yl)-3,4-dihydro-1H-pyrano[4,3-c]pyridin-4-ol] gave a pIC50 of 7.68.

In turn, `Cn1ncc2c1C=C(c1cncc3c1COCC3O)CC2` (single isomer, unassigned) [Compound 189, 8-(1-Methyl-4,5-dihydro-1H-indazol-6-yl)-3,4-dihydro-1H-pyrano[4,3-c]pyridin-4-ol] gave a pIC50 of 7.17.

On to `Cn1ncc2c1CC(c1cncc3c1COCC3O)CC2` (single isomer, unassigned) [Compound 190, 8-(1-Methyl-4,5,6,7-tetrahydro-1H-indazol-6-yl)-3,4-dihydro-1H-pyrano[4,3-c]pyridin-4-ol], for which the pIC50 is 6.47.

Consider `Cn1ncc2c1CC(c1cncc3c1COCC3O)CC2` (single isomer, unassigned) [Compound 191, 8-(1-Methyl-4,5,6,7-tetrahydro-1H-indazol-6-yl)-3,4-dihydro-1H-pyrano[4,3-c]pyridin-4-ol], for which the pIC50 was 7.32.

The molecule `N#CC1CC=C(c2cncc3c2COCC3O)CC1` (single isomer, unassigned) [Compound 192, 4-(4-Hydroxy-3,4-dihydro-1H-pyrano[4,3-c]pyridin-8-yl)-cyclohex-3-enecarbonitrile] had a negative-log IC50 (pIC50) of 7.85.

`CCC(=O)NC1COCc2c(-c3cc4c(cnn4C)cc3F)cncc21` (single isomer, unassigned) [Compound 193, N-[8-(5-Fluoro-1-methyl-1H-indazol-6-yl)-3,4-dihydro-1H-pyrano[4,3-c]pyridin-4-yl]-propionamide] gave a pIC50 of 7.42.

`CCC(=O)NC1COCc2c(-c3ccc4c(c3)COCC4(F)F)cncc21` (single isomer, unassigned) [Compound 194, N-[8-(4,4-Difluoro-isochroman-7-yl)-3,4-dihydro-1H-pyrano[4,3-c]pyridin-4-yl]-propionamide] gave a pIC50 of 7.42.

Molecule `CCS(=O)(=O)NC1COCc2c(-c3cc4c(cnn4C)cc3F)cncc21` (single isomer, unassigned) [Compound 195, Ethanesulfonic acid [8-(5-fluoro-1-methyl-1H-indazol-6-yl)-3,4-dihydro-1H-pyrano[4,3-c]pyridin-4-yl]-amide] showed a negative-log IC50 (pIC50) of 6.85.

In the case of `CCS(=O)(=O)NC1COCc2c(-c3ccc4c(c3)COCC4(F)F)cncc21` (single isomer, unassigned) [Compound 196, Ethanesulfonic acid [8-(4,4-difluoro-isochroman-7-yl)-3,4-dihydro-1H-pyrano[4,3-c]pyridin-4-yl]-amide], the pIC50 is 6.48.

In turn, `Cn1nnc2ccc(-c3cncc4c3COC3(CC3)C4O)cc21` (single isomer, unassigned) [Compound 197, 8-(3-methylbenzotriazol-5-yl)spiro[1,4-dihydropyrano[4,3-c]pyridine-3,1′-cyclopropane]-4-ol] showed a pIC50 of 7.74.

For the molecule `Cn1nnc2ccc(-c3cncc4c3COC3(CC3)C4O)cc21` (single isomer, unassigned) [Compound 198, 8-(3-methylbenzotriazol-5-yl)spiro[1,4-dihydropyrano[4,3-c]pyridine-3,1′-cyclopropane]-4-ol], the pIC50 was 7.72.

In turn, `OC1COCc2c(-c3ccc4c(c3)COCC4(F)F)cncc21` (single isomer, unassigned) [Compound 199, 8-(4,4-Difluoro-isochroman-7-yl)-3,4-dihydro-1H-pyrano[4,3-c]pyridin-4-ol] had a pIC50 of 7.66.

In turn, `OC1COCc2c(-c3ccc4c(c3)COCC4(F)F)cncc21` (single isomer, unassigned) [Compound 200, 8-(4,4-Difluoro-isochroman-7-yl)-3,4-dihydro-1H-pyrano[4,3-c]pyridin-4-ol] showed a pIC50 of 6.55.

Take `Cn1ncc2ccc(-c3cncc4c3COCC4C#N)cc21` (stereo not drawn) [Compound 9, 8-(1-Methyl-1H-indazol-6-yl)-3,4-dihydro-1H-pyrano[4,3-c]pyridine-4-carbonitrile]: the negative logarithm of the IC50 (pIC50) is 8.24.

`NC(=O)N1CCCc2cc(-c3cncc4c3COCC4O)cnc21` (stereo not drawn) [Compound 102, 6-(4-Hydroxy-3,4-dihydro-1H-pyrano[4,3-c]pyridin-8-yl)-3,4-dihydro-2H-[1,8]naphthyridine-1-carboxylic acid amide] gave a negative-log IC50 (pIC50) of 7.19.

Take `NC(=O)N1CCCc2cc(-c3cncc4c3C(O)COC4)cnc21` (stereo not drawn) [Compound 160, 6-(4-Hydroxy-3,4-dihydro-1H-pyrano[3,4-c]pyridin-5-yl)-3,4-dihydro-2H-[1,8]naphthyridine-1-carboxylic acid amide]: the pIC50 was 7.29.

Regarding `CCS(=O)(=O)NC1COCc2c(-c3ccc4c(c3)CCC4O)cncc21` (stereo not drawn) [Compound 184, Ethanesulfonic acid [8-(1-hydroxy-indan-5-yl)-3,4-dihydro-1H-pyrano[4,3-c]pyridin-4-yl]-amide], the negative-log IC50 (pIC50) is 6.91.

For orientation: pIC50 means the IC50 on a negative log10 scale, so that one unit is a factor of ten. Low values mean a high IC50, high ones a low IC50.

These data come from patent US9890171B2, “Aldosterone synthase inhibitors” (Boehringer Ingelheim International GmbH, priority 2014, dated 2018).
